Earlier results as cited in patent US11701406B2 (The Board of Trustees of the Leland Stanford Junior …, priority 2017, dated 2023).

biological target: T1, NEDD8 activating enzyme (NAE) (Homo sapiens, UniProt Q8TBC4); details: read-out: IC50 (Activity, Inhibitors of NAE)
T1 sequence (Q8TBC4 2-463 limits assumed): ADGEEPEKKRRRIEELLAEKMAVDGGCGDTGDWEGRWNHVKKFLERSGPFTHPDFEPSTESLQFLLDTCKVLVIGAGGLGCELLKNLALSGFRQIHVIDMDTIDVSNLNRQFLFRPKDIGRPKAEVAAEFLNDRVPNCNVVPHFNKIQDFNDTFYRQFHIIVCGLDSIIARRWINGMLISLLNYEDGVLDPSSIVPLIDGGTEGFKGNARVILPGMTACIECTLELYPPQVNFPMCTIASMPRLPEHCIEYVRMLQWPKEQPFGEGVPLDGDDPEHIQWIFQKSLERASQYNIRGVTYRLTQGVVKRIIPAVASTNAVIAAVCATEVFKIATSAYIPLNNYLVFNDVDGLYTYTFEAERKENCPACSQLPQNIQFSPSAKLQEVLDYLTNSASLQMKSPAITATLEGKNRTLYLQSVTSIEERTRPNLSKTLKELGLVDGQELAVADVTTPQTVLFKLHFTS
T1 sequence (Q13564 2-534 partner limits assumed): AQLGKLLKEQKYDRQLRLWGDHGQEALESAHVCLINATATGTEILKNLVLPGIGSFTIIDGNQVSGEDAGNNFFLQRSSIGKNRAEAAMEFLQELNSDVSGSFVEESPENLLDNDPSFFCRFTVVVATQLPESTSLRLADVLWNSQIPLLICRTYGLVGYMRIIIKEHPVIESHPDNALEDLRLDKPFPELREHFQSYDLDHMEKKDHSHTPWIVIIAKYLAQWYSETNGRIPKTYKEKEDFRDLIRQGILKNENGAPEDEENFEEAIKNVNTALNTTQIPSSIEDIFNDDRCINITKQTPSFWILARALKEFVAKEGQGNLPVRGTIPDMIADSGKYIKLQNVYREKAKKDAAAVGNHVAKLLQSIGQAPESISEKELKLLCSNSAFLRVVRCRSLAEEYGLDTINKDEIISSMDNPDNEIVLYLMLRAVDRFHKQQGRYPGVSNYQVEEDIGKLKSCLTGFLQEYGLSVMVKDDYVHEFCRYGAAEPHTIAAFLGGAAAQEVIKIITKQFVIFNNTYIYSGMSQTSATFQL

| Compound | IC50 |
| --- | --- |
| CCN1CCN(C(=O)N[C@@H](C(=O)N[C@@H]2C(=O)N3C2SC(C)(C)[C@@H]3C(=O)O)c2ccccc2)C(=O)C1=O (stereo partly drawn) [Piperacillin] | 1000 nM |
| Clc1ccc(CCNC2CCN(Cc3ccccc3)CC2)c(Cl)c1 [M22] | 9000 nM |
| Nc1ccc(SCC(=O)Nc2ccc3nc(NC(=O)c4ccc(C(F)(F)F)cc4)sc3c2)cc1 | 100 nM |

Now from value to compound:

| IC50 | Compound |
| --- | --- |
| 1 nM | CN1CCOc2c1ccc(F)c2C#Cc1cn([C@@H]2O[C@@H](CCS(N)(=O)=O)[C@@H](O)[C@H]2O)c2ncnc(N)c12 [TAS 1] |
| 20 nM | CN1CCOc2c1ccc(F)c2C#Cc1cn([C@@H]2C[C@@H](CCS(N)(=O)=O)[C@@H](O)[C@H]2O)c2ncnc(N)c12 [TAS 2] |
| 1 nM | MLN7243 |
